Measured values as given in patent publication US11679097B2, “Combination product containing limonoid compound and biguanide compound” (ZHEJIANG YANGSHENGTANG INSTITUTE OF NATURAL MEDICATION CO., …, priority 2017, dated 2023).

Key:
Type in all cases: in vivo
[1] = test system: STZ mice; experiment: Blood glucose in mouse pancreatic islet β-cell injury model (Example 3); conditions: STZ ICR mice; single administration 0.1 g/kg per day by gavage, two weeks; 1 h after last administration
From the text: Effects of a Limonoid Compound, Metformin or a Combination Thereof on Blood Glucose in a Mouse Pancreatic Islet β-Cell Injury Model In this example, a mouse pancreatic islet β-cell injury model was established by modeling ICR mice with streptozotocin (STZ) (referred to the prior art literature: Li Nan et al., Protective effect of pine pollen on kidney damage in diabetic nephropathy mice, Science and Technology Review, 2014, 32 (4/5): 95-99), and used to complete the evaluation of hypoglycemic effect in animals (this model could simulate pancreatic islet β-cell damage state of type I and type II diabetics). […] Conditions of experimental feeding: ICR mice (20±2 g), aged 6 weeks, purchased from Zhejiang Academy of Medical Sciences, and subjected to experimental feeding after 7 days of preliminary feeding. […] The experimental feed was mouse growth-stable feed (GB […]), and the daily feeding and management of the animals were under the responsibility of the animal security department, which provided the animals with sufficient padding and fresh drinking water daily. Experimental grouping: 15 male mice were randomly selected as the normal control group. […] Gavage doses: the gavage dose was 0.1 g/kg per day for the […] group, the gavage dose was 0.1 g/kg per day for the […] group, the gavage dose was 0.1 g/kg per day for the […]-glucopyranoside group, the gavage dose of metformin was 0.1 g/kg per day for the metformin group, […] dose of 0.05 g/kg and metformin at a dose of 0.05 g/kg were simultaneously gavaged per day for the […]/metformin combination group, […] dose of 0.05 g/kg and metformin at a dose of 0.05 g/kg were simultaneously gavaged per day for the […]/metformin combination group, […]-glucopyranoside at a dose of 0.05 g/kg and metformin at a dose of 0.05 g/kg were simultaneously gavaged per day for the […]-glucopyranoside/metformin combination group, the gavage volume was 10 mL/kg, and the normal group and the model group were administrated with 10 mL/kg of distilled water. […] SPSS 16.0 software was used for statistical analysis. The data were expressed as mean and standard deviation. The data before and after were analyzed by t-test, and P<0.05 was considered statistically significant.

[2] = test system: STZ mice; experiment: Blood glucose in mouse model of type II diabetes with pancreatic islet damage and obesity (Example 5); conditions: high-fat diet + STZ ICR mice; single administration 0.5 g/kg per day by gavage, three weeks
Method: (§1) It should be noted that the conditions for raising the mice were as follows: the temperature was 23±1° C., the humidity was 55±10%, the lights were turned on between 7 am and 7 pm (the lights were turned off at other time), and the mice were allowed to access to water and feed freely. The experimental feed was mouse growth-stable feed (GB M2118), and the daily feeding and management of the animals were under the responsibility of the animal security department, which provided the animals with sufficient padding and fresh drinking water daily.
SPSS 16.0 software was used for statistical analysis.

[3] = test system: db/db mice; experiment: Blood glucose and insulin in mouse model of type II diabetes (Example 4); conditions: single administration 0.2 g/kg per day by gavage, two weeks
From the text: Effects of a Limonoid Compound, Metformin or a Combination Thereof on Blood Glucose and Insulin in a Mouse Model of Type II Diabetes
In the present embodiment, the limonoid compound selected nomilin, deacetylnomilin, nomilin acid, deactylnomilin 17-β-D-glucopyranoside, and a nomilin single administration group, deacetylnomilin single administration group, nomilin acid single administered group, deactylnomilin 17-β-D-glucopyranoside single administration group, and combination thereof with metformin administration groups were set, respectively.
as §1, with “Conditions for experimental feeding: as type II diabetes model mice, 6-week-old SPF-grade db/db mice were purchased from the Nanjing Model Biology Institute, and subjected to experimental feeding after 7 days of preliminary feeding. It” for “It”
Experimental grouping: male db/db mice (20±2 g) were selected, 18 male mice in each group were tested, and drinking bottles were sterilized weekly. The experimental groups included the normal control group (db/m, n=18), the model group (db/db, n=18), the nomilin group (db/db, n=18), the deacetylnomilin group (db/db, n=18), the nomilin acid group (db/db, n=18), the deactylnomilin 17-β-D-glucopyranoside group (db/db, n=18), the metformin group (db/db, n=18), the nomilin/metformin combination group (db/db, n=18), the deacetylnomilin/metformin combination group (db/db, n=18), the nomilin acid/metformin combination group (db/db, n=18), the deactylnomilin 17-β-D-glucopyranoside/combination group (db/db, n=18).
Gavage doses: nomilin at a dose of 0.2 g/kg was gavaged per day for the nomilin group, deacetylnomilin at a dose of 0.2 g/kg was gavaged per day for the deacetylnomilin group, nomilin acid at a dose of 0.2 g/kg was gavaged per day for the nomilin acid group, deacetylnomilin […] at a dose of 0.2 g/kg was gavaged per day for the deactylnomilin glucopyranoside group, metformin at a dose of 0.2 g/kg was gavaged per day for the metformin group, nomilin at a dose of 0.1 g/kg and metformin at a dose of 0.1 g/kg were simultaneously gavaged per day for the nomilin/metformin combination group, nomilin acid at a dose of 0.1 g/kg and metformin at a dose of 0.1 g/kg were simultaneously gavaged per day for the nomilin acid/metformin combination group, deacetylnomilin at a dose of 0.1 g/kg and metformin at a dose of 0.1 g/kg were simultaneously gavaged per day for the deacetylnomilin/metformin combination group, deactylnomilin 17-β-D-glucopyranoside at a dose of 0.1 g/kg and metformin at a dose of 0.1 g/kg were simultaneously gavaged per day for the deactylnomilin 17-β-D-glucopyranoside/metformin combination group, the gavage volume was 10 mL/kg, and the normal group and the model group were administrated with 10 mL/kg of distilled water. Two weeks later, the blood glucose values were measured by tail trimming method (Johnson's blood glucose meter) 1 h after the last administration, and serum insulin levels were measured with blood collected from orbital cavity by enzyme-linked immunosorbent assay (Elisa), and the average of each group was obtained. SPSS 16.0 software was used for statistical analysis. The data were expressed as mean and standard deviation. The data before and after were analyzed by t-test, and P<0.05 was considered statistically significant.

CC1(C)O[C@](C)(O)[C@]2(C)[C@H]3CC[C@@]4(C)[C@H](c5ccoc5)OC(=O)[C@H]5O[C@]54[C@]3(C)C(=O)C[C@@H]12 [Ichangensin, ichangensin]
Blood glucose value [1]: 14.5 ± 3.5 mmol/L

CC(C)(O)[C@@H]1CC(=O)[C@]2(C)[C@H](CC[C@@]3(C)[C@H](c4ccoc4)OC(=O)[C@H]4O[C@]432)[C@]12COC(=O)C[C@@H]2O [Ichangin, ichangin]
Blood glucose value [1]: 14.8 ± 1.9 mmol/L

deactylnomilin 17-β-D-glucopyranoside
Blood glucose value [2]: 12.7 ± 2.5 mmol/L
Insulin ([3]; serum, Elisa): 8.40 ± 3.27 pg/mL
Blood glucose value ([3]; 1 h after last administration): 12.8 ± 5.5 mmol/L

ichangin 17-β-D-glucopyranoside
Blood glucose value [1]: 14.9 ± 2.1 mmol/L

nomilin 17-β-D-glucopyranoside
Blood glucose value [2]: 12.8 ± 2.9 mmol/L

nomilinic acid 17-β-D-glucopyranoside
Blood glucose value [2]: 13.5 ± 2.4 mmol/L
